{"source": "patent US20240083892A1", "about": "(BISICHEM CO., LTD., priority 2021, published 2024)"}
{"target": "T1, RIPK1 (Homo sapiens, UniProt Q13546)", "T1 construct": "endogenous in cells; host or cells: HT-29 (KCLB 30038)", "T1 sequence (Q13546 1-671)": "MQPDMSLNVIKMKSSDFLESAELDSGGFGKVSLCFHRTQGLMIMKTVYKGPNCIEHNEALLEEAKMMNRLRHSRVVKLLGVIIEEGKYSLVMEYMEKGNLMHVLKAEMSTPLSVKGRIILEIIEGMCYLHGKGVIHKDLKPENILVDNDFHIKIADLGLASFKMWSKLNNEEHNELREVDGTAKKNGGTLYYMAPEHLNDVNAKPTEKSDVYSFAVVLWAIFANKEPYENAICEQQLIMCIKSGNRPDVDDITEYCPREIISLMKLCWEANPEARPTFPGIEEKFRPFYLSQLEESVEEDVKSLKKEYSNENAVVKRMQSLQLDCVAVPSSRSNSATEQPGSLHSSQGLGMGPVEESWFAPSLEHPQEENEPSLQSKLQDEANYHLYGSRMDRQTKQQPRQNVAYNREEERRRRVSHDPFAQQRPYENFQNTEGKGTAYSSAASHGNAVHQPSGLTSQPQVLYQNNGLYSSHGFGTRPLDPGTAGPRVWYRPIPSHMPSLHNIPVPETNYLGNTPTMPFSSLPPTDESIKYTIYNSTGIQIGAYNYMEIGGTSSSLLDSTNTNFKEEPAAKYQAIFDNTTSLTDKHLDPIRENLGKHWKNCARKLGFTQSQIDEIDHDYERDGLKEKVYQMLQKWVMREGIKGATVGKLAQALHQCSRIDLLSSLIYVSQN", "assay": "Cell-based necroptosis assay for RIPK1 activity (cell viability by CCK-8)", "details": "HT-29 cells; Z-VAD-FMK 20 μM, human TNFα 10 ng/ml, SM-164 100 nM; 24 h; read-out: Cell-base RIPK1 activity: Necroptosis", "description": "Human colon carcinoma cell HT-29 (KCLB 30038), BV2 mouse microglial cell (cell was a kind gift from Dr. Nak-Yun Sung, Senior researcher at Korea Prime Pharmacy CO., LTD.) and human microglial cell HMC3 (ATCC® CRL-3304™). HT-29 cell was grown in Roswell Park Memorial Institute (RPMI) 1640, BV2 cell was grown in Dulbecco's Modified Eagle's Medium (DMEM) and HMC3 cell was grown in Minimum Essential Media Eagle (MEM) supplemented with 10% fetal bovine serum and 1% mixture of penicillin and streptomycin (Gibco). Cells were maintained at 37° C. in a humidified 5% CO2 atmosphere.\nTo measure the activity of RIPK1 inhibitor in necroptotic cells, HT-29 cells were treated by control DMSO, human TNFα (Peprotech, Rocky Hill, USA), SM-164 (Biovision, California, USA) and a pan-caspase inhibitor Z-VAD-FMK (Invivogen, San Diego, USA). Cells were pretreated with Z-VAD-FMK 20 μM. After 30 min, human TNFα 10 ng/ml, SM-164 100 nM and RIPK1 Inhibitor (0.0001, 0.001, 0.01, 0.02, 0.05, 0.1, 1, 10 uM) were treated for 24 h. Cell viability was measured by Cell Counting Kit 8 (CCK-8) (Dong-in, Seoul, Korea).", "units": {"IC50": "µM"}}
{"smiles": "CN1C(=O)[C@@H](NC(=O)n2cc(Cc3cccc(F)c3)cn2)COc2ccc(O[C@@H]3CCOC3)cc21", "note": "[Example 32, 4-(3-fluorobenzyl)-N—((S)-5-methyl-4-oxo-7-(((R)-tetrahydrofuran-3-yl)oxy)-2,3,4,5-tetrahydrobenzo[b][1,4]oxazepin-3-yl)-1H-pyrazole-1-carboxamide]", "IC50": "< 0.01"}
{"smiles": "CN1C(=O)[C@@H](NC(=O)n2cc(Cc3cccc(F)c3)cn2)COc2ccc(C(=O)NOCC(C)(C)O)cc21", "note": "[Example 13, (S)-3-(4-(3-fluorobenzyl)-1H-pyrazole-1-carboxamido)-N-(2-hydroxy-2-methylpropoxy)-5-methyl-4-oxo-2,3,4,5-tetrahydrobenzo[b][1,4]oxazepine-7-carboxamide]", "IC50": "0.01 to 0.05"}
{"smiles": "CN1CCN(C(=O)c2ccc3c(c2)N(C)C(=O)[C@@H](NC(=O)n2cc(Cc4cccc(F)c4)cn2)CO3)CC1", "note": "[Example 7, (S)-4-(3-fluorobenzyl)-N-(5-methyl-7-(4-methylpiperazine-1-carbonyl)-4-oxo-2,3,4,5-tetrahydrobenzo[b][1,4]oxazepin-3-yl)-1H-pyrazole-1-carboxamide]", "IC50": "0.01 to 0.05"}
{"smiles": "CN1C(=O)[C@@H](NC(=O)n2cc(Cc3cccc(F)c3)cn2)COc2ccc(OCC(=O)NCC(C)(C)O)cc21", "note": "[Example 52, (S)-4-(3-fluorobenzyl)-N-(7-(2-((2-hydroxy-2-methylpropyl)amino)-2-oxoethoxy)-5-methyl-4-oxo-2,3,4,5-tetrahydrobenzo[b][1,4]oxazepin-3-yl)-1H-pyrazole-1-carboxamide]", "IC50": "< 0.01"}
{"smiles": "CN1C(=O)[C@@H](NC(=O)n2cc(Cc3cccc(F)c3)cn2)COc2ccc(C(=O)N3CCNCC3)cc21", "note": "[Example 8, (S)-4-(3-fluorobenzyl)-N-(5-methyl-4-oxo-7-(piperazine-1-carbonyl)-2,3,4,5-tetrahydrobenzo[b][1,4]oxazepin-3-yl)-1H-pyrazole-1-carboxamide]", "IC50": "> 0.05"}
{"smiles": "CN(C)CCOc1ccc2c(c1)N(C)C(=O)[C@@H](NC(=O)n1cc(Cc3cccc(F)c3)cn1)CO2", "note": "[Example 17, (S)—N-(7-(2-(dimethylamino)ethoxy)-5-methyl-4-oxo-2,3,4,5-tetrahydrobenzo[b][1,4]oxazepin-3-yl)-4-(3-fluorobenzyl)-1H-pyrazole-1-carboxamide]", "IC50": "0.01 to 0.05"}
{"smiles": "CN1C(=O)[C@@H](NC(=O)n2cc(Cc3cccc(F)c3)cn2)COc2ccc(C(=O)N3CCOCC3)cc21", "note": "[Example 9, (S)-4-(3-fluorobenzyl)-N-(5-methyl-7-(morpholine-4-carbonyl)-4-oxo-2,3,4,5-tetrahydrobenzo[b][1,4]oxazepin-3-yl)-1H-pyrazole-1-carboxamide]", "IC50": "0.01 to 0.05"}
{"smiles": "CN1C(=O)[C@@H](NC(=O)n2cc(Cc3cccc(F)c3)cn2)COc2ccc(C(=O)N3CCC(O)C3)cc21", "note": "(stereo partly drawn) [Example 10, 4-(3-fluorobenzyl)-N-((3S)-7-(3-hydroxypyrrolidine-1-carbonyl)-5-methyl-4-oxo-2,3,4,5-tetrahydrobenzo[b][1,4]oxazepin-3-yl)-1H-pyrazole-1-carboxamide]", "IC50": "< 0.01"}
{"smiles": "CN1CC[C@@H](Oc2ccc3c(c2)N(C)C(=O)[C@@H](NC(=O)n2cc(Cc4cccc(F)c4)cn2)CO3)C1", "note": "[Example 33, 4-(3-fluorobenzyl)-N—((S)-5-methyl-7-(((R)-1-methylpyrrolidin-3-yl)oxy)-4-oxo-2,3,4,5-tetrahydrobenzo[b][1,4]oxazepin-3-yl)-1H-pyrazole-1-carboxamide]", "IC50": "0.01 to 0.05"}
